Results: patent publication US10028961B2, “Therapeutically active compounds and their methods of use” (AGIOS PHARMACEUTICALS, INC., priority 2013, dated 2018)
pIC50: −log10 of the molar value.

What was measured:
[1] = target: IDH1 wt/IDH1 R132H heterodimer (Homo sapiens (Human), UniProt O75874, R132H); assay: In vitro assay for IDH1m R132H inhibitors, IDH1 wt/IDH1 R132H heterodimer, NADPH depletion (diaphorase/resazurin); assay type: biochemical; details: IDH1 wt/R132H heterodimer, NADPH/NADP, not saturated; read-out: IDH1 wt/R132H NADPH/NADP IC50 not saturated
Method in brief: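 Read-out is NADPH left after α-KG reduction to 2-HG, measured via resorufin fluorescence after 5 min diaphorase/resazurin step at 25° C. Enzyme is sf9-expressed IDH1wt-his/IDH1R132H-flag heterodimer, pre-incubated 1 hr at room temperature with compound and cofactor. IC50s from DMSO stocks diluted 1:50.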

IDH2 R140Q [2] = target: T1, IDH2 R140Q (Homo sapiens (Human), UniProt P48735, R140Q); assay: In vitro assay for IDH2m R140Q inhibitors, cofactor depletion assay; assay type: biochemical; details: IDH2 R140Q enzyme
Method in brief: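 Remaining cofactor measured fluorimetrically: diaphorase/resazurin Stop Mix […], halting the reaction. Before that, mutant enzyme and compound sat 1 h at RT, then substrate mix (4 μM NADPH, 1.6 mM α-KG) was added for 16 h at RT.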

IDH2 R140Q [3] = target: T1, IDH2 R140Q; assay: In vitro assay for IDH2m R140Q inhibitors, cofactor depletion assay, 16 hr preincubation with NADPH/NADP; assay type: biochemical; details: read-out: IDH2 R140Q 16 hr NADPH/NADP IC50; 16 hrs preincubation with enzyme, 5 uM NADPH and 750 uM NADP
Source text: The following describes the experimental procedures used to obtain data on column 6 of Table 5.
The reaction is terminated by the addition of a second enzyme, diaphorase, and a corresponding substrate, resazurin. Diaphorase reduces resazurin to the highly fluorescent resorufin with the concomitant oxidation of NADPH to NADP, both halting the IDH2 reaction by depleting the available cofactor pool and facilitating quantitation of the amount of cofactor remaining after a specific time period through quantitative production of an easily detected fluorophore.
The test compound is then incubated for 16 hrs at room temperature with the enzyme and cofactors before starting the IDH2 reaction with the addition of 10 μl of substrate mix containing 8 mM α-KG (final concentration 1.6 mM) in the buffer described above. After a further 1 hour of incubation at room temperature, the reaction is halted and the remaining NADPH measured through conversion of resazurin to resorufin by the addition of 25 μl Stop Mix (36 μg/ml diaphorase enzyme and 60 μM resazurin; in buffer).

HT1080 cells = assay: Cellular assay for IDH1m R132C inhibitors, 2-HG by LC-MS in HT1080 cells; assay type: cell-based; details: Homo sapiens, HT-1080
Method in brief: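 2-HG levels were measured by LC-MS in culture medium sampled 48 h after compound addition (0.2% DMSO) to HT1080 cells seeded overnight at 5000 cells/well. A CellTiter-Glo luminescence read at 72 h gave cell viability.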

T1 sequence (P48735 40-452 R140Q): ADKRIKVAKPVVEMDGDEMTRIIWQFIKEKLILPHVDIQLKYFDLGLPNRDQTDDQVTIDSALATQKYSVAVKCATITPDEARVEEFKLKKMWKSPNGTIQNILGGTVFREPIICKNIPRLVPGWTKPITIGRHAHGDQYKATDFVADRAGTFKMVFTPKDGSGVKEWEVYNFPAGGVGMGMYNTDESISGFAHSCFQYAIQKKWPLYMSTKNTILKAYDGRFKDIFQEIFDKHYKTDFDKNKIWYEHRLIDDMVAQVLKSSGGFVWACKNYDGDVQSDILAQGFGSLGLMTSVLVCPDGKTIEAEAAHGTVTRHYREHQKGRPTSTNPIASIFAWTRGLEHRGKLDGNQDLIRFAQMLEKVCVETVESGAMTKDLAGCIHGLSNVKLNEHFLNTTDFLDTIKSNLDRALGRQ
Chain of IDH1 wt/IDH1 R132H heterodimer (O75874 whole entry R132H): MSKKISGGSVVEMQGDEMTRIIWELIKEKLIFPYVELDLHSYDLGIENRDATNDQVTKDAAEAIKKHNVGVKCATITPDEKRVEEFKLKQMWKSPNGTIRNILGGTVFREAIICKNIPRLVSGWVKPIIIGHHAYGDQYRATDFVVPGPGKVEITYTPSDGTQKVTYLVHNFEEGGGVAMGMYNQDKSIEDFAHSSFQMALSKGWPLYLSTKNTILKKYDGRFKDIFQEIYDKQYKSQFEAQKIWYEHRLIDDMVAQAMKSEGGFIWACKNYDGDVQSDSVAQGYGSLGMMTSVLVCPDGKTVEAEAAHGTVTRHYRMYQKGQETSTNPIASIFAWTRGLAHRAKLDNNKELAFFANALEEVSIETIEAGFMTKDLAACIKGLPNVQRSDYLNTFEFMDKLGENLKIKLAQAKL
Chain of IDH1 wt/IDH1 R132H heterodimer (O75874 whole entry, stated change not applied): as the sequence (O75874 whole entry R132H) above, with H132R counted along it

pIC50 [1]	pIC50 (IDH2 R140Q [2])	pIC50 (IDH2 R140Q [3])	pIC50 (HT1080 cells)	SMILES
> 7.30	> 7.30	> 7.30	7.00 to 7.30	N#CC1(c2cc(Nc3nc(NC4CCC(F)(F)C4)nc(-c4cccc(Cl)n4)n3)ccn2)CC1 (stereo not shown) [Compound 127]
> 7.30	> 7.30	> 7.30	–	C[C@@H](Nc1nc(Nc2ccnc(C3(C#N)CC3)c2)nc(-c2cccc(Cl)n2)n1)C1CC1 [Compound 167]
6.00 to 7.00	–	6.00 to 7.00	< 6.00	FC1(F)CCC(Nc2nc(NC3CCN(Cc4ccccc4)C3)nc(-c3cccc(C(F)(F)F)n3)n2)C1 (stereo not shown) [Compound 280]
7.00 to 7.30	6.00 to 7.00	7.00 to 7.30	–	CC(CC#N)Nc1nc(Nc2ccnc(C(C)(F)F)c2)nc(-c2cccc(C(F)(F)F)n2)n1 (stereo not shown) [Compound 250]
> 7.30	> 7.30	> 7.30	–	FC1(F)CCC(Nc2nc(Nc3ccnc(C(F)(F)F)c3)nc(-c3cccc(C(F)(F)F)n3)n2)C1 (stereo not shown) [Compound 178]
6.00 to 7.00	–	6.00 to 7.00	6.00 to 7.00	O=C(c1ccccc1)N1CCC(Nc2nc(NC3CCC(F)(F)C3)nc(-c3cccc(C(F)(F)F)n3)n2)C1 (stereo not shown) [Compound 263]
7.00 to 7.30	> 7.30	7.00 to 7.30	< 6.00	CC(C)(O)CNc1nc(Nc2cc(F)cc(C#N)c2)nc(-c2cccc(C(F)(F)F)n2)n1 [Compound 244]
> 7.30	> 7.30	> 7.30	> 7.30	CC(Nc1nc(N[C@H](C)C2CC2)nc(-c2cccc(C(F)(F)F)n2)n1)C(F)(F)F (stereo partly shown) [Compound 203]
6.00 to 7.00	–	6.00 to 7.00	< 6.00	CS(=O)(=O)N1CCC(Nc2nc(NC3CCC(F)(F)CC3)nc(-c3cccc(C(F)(F)F)n3)n2)CC1 [Compound 266]
> 7.30	> 7.30	> 7.30	> 7.30	FC1(F)CCC(Nc2nc(NC3CCC(F)(F)C3)nc(-c3cccc(Cl)n3)n2)C1 (stereo not shown) [Compound 113]
7.00 to 7.30	> 7.30	> 7.30	–	CC(C)(C)Nc1nc(Nc2cc(F)cc(C#N)c2)nc(-c2nccc(C(F)(F)F)n2)n1 [Compound 245]
> 7.30	> 7.30	> 7.30	–	C[C@@H](Nc1nc(NC(C2CC2)C2CC2)nc(-c2cccc(C(F)(F)F)n2)n1)C1CC1 [Compound 193]
6.00 to 7.00	–	6.00 to 7.00	6.00 to 7.00	FC1(F)CCC(Nc2nc(NC3CCOCC3)nc(-c3cccc(C(F)(F)F)n3)n2)CC1 [Compound 255]
> 7.30	> 7.30	> 7.30	7.00 to 7.30	CCC(Nc1nc(NC(CC)C2CC2)nc(-c2cccc(Cl)n2)n1)C1CC1 (stereo not shown) [Compound 110]
> 7.30	> 7.30	> 7.30	< 6.00	CC(C)(C)Nc1nc(Nc2cccc(C#N)c2)nc(-c2cccc(C(F)(F)F)n2)n1 [Compound 117]

SMILES	pIC50 [1]	pIC50 (IDH2 R140Q [2])	pIC50 (IDH2 R140Q [3])	pIC50 (HT1080 cells)
C[C@@H](Nc1nc(N[C@H](C)C2CC2)nc(-c2nccc(C(F)(F)F)n2)n1)C1CC1 [Compound 268]	6.00 to 7.00	7.00 to 7.30	7.00 to 7.30	6.00 to 7.00
CC(=O)N1CCC(Nc2nc(NC3CCC(F)(F)CC3)nc(-c3cccc(C(F)(F)F)n3)n2)CC1 [Compound 273]	6.00 to 7.00	–	< 6.00	< 6.00
